In PubChem BioAssay (NCI):
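How tested: cells in 96-well plates exposed to compound for 48 hours at five concentrations. TGI marks complete inhibition of growth.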

Experiments:
Experiment in all cases: DTP human tumour cell line panel, 48 h
SK-MEL-2 melanoma = tested on: SK-MEL-2 melanoma
T-47D breast = tested on: T-47D breast
SN12C renal = tested on: SN12C renal
RXF 393 renal = tested on: RXF 393 renal
ACHN renal = tested on: ACHN renal
DU-145 prostate = tested on: DU-145 prostate
UACC-257 melanoma = tested on: UACC-257 melanoma
PC-3 prostate = tested on: PC-3 prostate
SF-268 CNS = tested on: SF-268 CNS
HCT-15 colon = tested on: HCT-15 colon
CAKI-1 renal = tested on: CAKI-1 renal
OVCAR-5 ovarian = tested on: OVCAR-5 ovarian
M14 melanoma = tested on: M14 melanoma
SK-MEL-5 melanoma = tested on: SK-MEL-5 melanoma
EKVX NSCLC = tested on: EKVX NSCLC
UO-31 renal = tested on: UO-31 renal
HCC-2998 colon = tested on: HCC-2998 colon
786-0 renal = tested on: 786-0 renal
SF-539 CNS = tested on: SF-539 CNS
COLO 205 colon = tested on: COLO 205 colon
SNB-75 CNS = tested on: SNB-75 CNS
UACC-62 melanoma = tested on: UACC-62 melanoma
BT-549 breast = tested on: BT-549 breast
HCT-116 colon = tested on: HCT-116 colon
SK-OV-3 ovarian = tested on: SK-OV-3 ovarian
NCI/ADR-RES ovarian = tested on: NCI/ADR-RES ovarian
MALME-3M melanoma = tested on: MALME-3M melanoma
MDA-N = tested on: MDA-N
NCI-H23 lung = tested on: NCI-H23 lung
NCI-H460 lung = tested on: NCI-H460 lung
MCF7 breast = tested on: MCF7 breast
NCI-H226 lung = tested on: NCI-H226 lung
TK-10 renal = tested on: TK-10 renal
OVCAR-4 ovarian = tested on: OVCAR-4 ovarian
MOLT-4 leukemia = tested on: MOLT-4 leukemia
SK-MEL-28 melanoma = tested on: SK-MEL-28 melanoma
HOP-92 NSCLC = tested on: HOP-92 NSCLC
OVCAR-8 ovarian = tested on: OVCAR-8 ovarian
K-562 leukemia = tested on: K-562 leukemia
HS 578T breast = tested on: HS 578T breast
SNB-19 CNS = tested on: SNB-19 CNS
HT29 colon = tested on: HT29 colon
MDA-MB-435 = tested on: MDA-MB-435
RPMI-8226 leukemia = tested on: RPMI-8226 leukemia
A549 NSCLC = tested on: A549 NSCLC
LOX IMVI melanoma = tested on: LOX IMVI melanoma
SF-295 CNS = tested on: SF-295 CNS
SW-620 colon = tested on: SW-620 colon
U251 CNS = tested on: U251 CNS
A498 renal = tested on: A498 renal
OVCAR-3 ovarian = tested on: OVCAR-3 ovarian
IGROV1 ovarian = tested on: IGROV1 ovarian
CCRF-CEM leukemia = tested on: CCRF-CEM leukemia
KM12 colon = tested on: KM12 colon
HOP-62 NSCLC = tested on: HOP-62 NSCLC
SR leukemia = tested on: SR leukemia
MDA-MB-231 breast = tested on: MDA-MB-231 breast

NCC(=O)N1CCN(c2nc(N3CCCC3)c3nc(Cl)c(NCc4ccccc4)nc3n2)CC1
TGI (SK-MEL-2 melanoma): 3.42 µM
TGI (T-47D breast): 3.03 µM
TGI (SN12C renal): 3.34 µM
TGI (RXF 393 renal): 2.89 µM
TGI (ACHN renal): 4.34 µM
TGI (DU-145 prostate): 6.82 µM
TGI (UACC-257 melanoma): 3.24 µM
TGI (PC-3 prostate): 7.33 µM
TGI (SF-268 CNS): 4.41 µM
TGI (HCT-15 colon): 3.67 µM
TGI (CAKI-1 renal): 6.4 µM
TGI (OVCAR-5 ovarian): 9.87 µM
TGI (M14 melanoma): 3.15 µM
TGI (SK-MEL-5 melanoma): 3.17 µM
TGI (EKVX NSCLC): 3.81 µM
TGI (UO-31 renal): 3.06 µM
TGI (HCC-2998 colon): 3.03 µM
TGI (786-0 renal): 3.11 µM
TGI (SF-539 CNS): 3.58 µM
TGI (COLO 205 colon): 3.19 µM
TGI (SNB-75 CNS): 3.16 µM
TGI (UACC-62 melanoma): 3.24 µM
TGI (BT-549 breast): 3.74 µM
TGI (HCT-116 colon): 3.23 µM
TGI (SK-OV-3 ovarian): 3.54 µM
TGI (NCI/ADR-RES ovarian): 36.8 µM
TGI (MALME-3M melanoma): 3.73 µM
TGI (MDA-N): 3.34 µM
TGI (NCI-H23 lung): 3.63 µM
TGI (NCI-H460 lung): 3.59 µM
TGI (MCF7 breast): 3.38 µM
TGI (NCI-H226 lung): 19 µM
TGI (TK-10 renal): 3.73 µM
TGI (OVCAR-4 ovarian): 4.79 µM

O=C1/C(=C/c2cccs2)NC(=S)N1CN1CCOCC1
TGI (MOLT-4 leukemia): > 100 µM
TGI (SK-MEL-28 melanoma): > 100 µM
TGI (HOP-92 NSCLC): > 100 µM
TGI (SK-MEL-2 melanoma): > 100 µM
TGI (OVCAR-8 ovarian): > 100 µM
TGI (K-562 leukemia): > 100 µM
TGI (SN12C renal): > 100 µM
TGI (HS 578T breast): > 100 µM
TGI (ACHN renal): > 100 µM
TGI (SNB-19 CNS): > 100 µM
TGI (DU-145 prostate): > 100 µM
TGI (UACC-257 melanoma): > 100 µM
TGI (PC-3 prostate): > 100 µM
TGI (HT29 colon): > 100 µM
TGI (SF-268 CNS): > 100 µM
TGI (MDA-MB-435): > 100 µM
TGI (RPMI-8226 leukemia): > 100 µM
TGI (HCT-15 colon): > 100 µM
TGI (OVCAR-5 ovarian): > 100 µM
TGI (M14 melanoma): > 100 µM
TGI (SK-MEL-5 melanoma): > 100 µM
TGI (A549 NSCLC): > 100 µM
TGI (LOX IMVI melanoma): > 100 µM
TGI (EKVX NSCLC): > 100 µM
TGI (UO-31 renal): > 100 µM
TGI (786-0 renal): > 100 µM
TGI (COLO 205 colon): > 100 µM
TGI (SNB-75 CNS): > 100 µM
TGI (SF-295 CNS): > 100 µM
TGI (UACC-62 melanoma): > 100 µM
TGI (HCT-116 colon): > 100 µM
TGI (SK-OV-3 ovarian): > 100 µM
TGI (NCI/ADR-RES ovarian): > 100 µM
TGI (SW-620 colon): > 100 µM
TGI (MDA-N): > 100 µM
TGI (NCI-H23 lung): > 100 µM
TGI (U251 CNS): > 100 µM
TGI (A498 renal): > 100 µM
TGI (MCF7 breast): > 100 µM
TGI (NCI-H226 lung): > 100 µM
TGI (TK-10 renal): > 100 µM
TGI (OVCAR-3 ovarian): > 100 µM
TGI (IGROV1 ovarian): > 100 µM
TGI (CCRF-CEM leukemia): > 100 µM
TGI (KM12 colon): > 100 µM
TGI (HOP-62 NSCLC): > 100 µM
TGI (SR leukemia): > 100 µM
TGI (MDA-MB-231 breast): > 100 µM
